Where no end group is shown, it is not given here.
Molecular target: T1, XPS1 ectodomain (Arabidopsis thaliana, UniProt Q9SD62)
T1 construct: The extracellular domain of XPS1 (amino acids 36-650) was cloned by ligation independent cloning; made in house; host or cells: Hi5 insect cells, baculovirus (pMelBac B)
T1 sequence (Q9SD62 36-650): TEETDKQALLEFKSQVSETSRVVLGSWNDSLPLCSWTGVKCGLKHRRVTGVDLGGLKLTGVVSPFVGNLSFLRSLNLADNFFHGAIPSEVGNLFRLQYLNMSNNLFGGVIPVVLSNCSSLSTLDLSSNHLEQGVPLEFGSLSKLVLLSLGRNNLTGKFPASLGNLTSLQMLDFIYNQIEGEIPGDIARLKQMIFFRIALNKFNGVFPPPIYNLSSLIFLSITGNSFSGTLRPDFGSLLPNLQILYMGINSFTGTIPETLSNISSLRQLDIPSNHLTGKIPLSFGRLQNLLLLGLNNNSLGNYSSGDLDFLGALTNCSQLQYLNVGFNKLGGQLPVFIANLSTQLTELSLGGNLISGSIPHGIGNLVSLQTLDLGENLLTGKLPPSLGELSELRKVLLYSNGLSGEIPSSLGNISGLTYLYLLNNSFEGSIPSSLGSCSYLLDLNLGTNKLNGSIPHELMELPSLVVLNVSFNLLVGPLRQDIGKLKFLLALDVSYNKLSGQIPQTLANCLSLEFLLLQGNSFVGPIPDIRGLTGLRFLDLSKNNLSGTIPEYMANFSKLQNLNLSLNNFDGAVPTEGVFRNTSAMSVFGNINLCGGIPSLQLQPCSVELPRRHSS
Assay: biochemical
Assay type: binding
Description: For XPS1 expression in Hi5 cells, the ectodomain of XPS1 (36-650) was inserted into the baculovirus transfer vector pMelBac B (Invitrogen). The extracellular domain of XPS1 (amino acids 36-650) was cloned by ligation independent cloning between the existing Honey bee melettin signal sequence and the C-terminal Strep II-9x His tag. […] The StrepII-9x His fused XPS1 ectodomain was produced by secreted expression in baculovirus-infected insect cells, harvested 72 h post infection and purified by Ni-NTA affinity chromatography (Qiagen). The samples were processed twice with a Superdex 200 16/60 column (GE Healthcare) pre-equilibrated with 10 mM Bis-Tris pH 6.0, 150 mM NaCl. Protein purity was checked by SDS-PAGE.
The XPS1 ectodomain was kept at a constant concentration (0.5 μM) in a buffer containing 10 mM Bis-Tris pH6, 150 mM NaCl, 5 % glycerol and 0.01 % Tween, whereas varying peptide concentrations were added. Approximately 4–6 μL of each sample was loaded in a fused silica capillary (NanoTemper Technologies). Measurements were performed at room temperature in a Monolith NT.label free instrument at a constant LED power of 20 and MST power of 60 %. Measurements were performed repeatedly on two independent protein preparations to ensure reproducibility. […] Curve fitting was performed by using the NT affinity analysis software from Nanotemper.

Sequence | Apparent EC50 range of XPS1 for peptide | EC50 [µM] | Overall KD of XPS1 binding | EC50 of binding to XPS1 ECD (additional replicate (Figure S7), XPS1 ECD 0.5 μM, pH6, MST power 60 %, NT affinity analysis) | Kd (read-out: KD of binding to XPS1 ECD) [µM]
LIPEGKVAVTTTQAATERKPLEQPR [xup25] | in the high nM range | 0.381 | not able to calculate an accurate overall KD |  | 
QRLSTGSRINSAKDDAAGLQIA [flg22, reference compound] |  |  |  | could not be fitted using the EC50 fit | 13.1
